pIC50: −log10 of the molar value.
The compounds below were run against Human DGAT2 (hDGAT2) (Homo sapiens (Human), UniProt Q96PD7) (assay: In vitro DGAT2 assay, IC50 determination with hDGAT2 membrane fraction). Settings: geometric mean; background for complete inhibition of DGAT2 obtained with 50 μM (1R,2R)-2-({3′-Fluoro-4′-[(6-fluoro-1,3-benzothiazol-2-yl)amino]-1,1′-biphenyl-4-yl}carbonyl)cyclopentanecarboxylic acid; read-out: DGAT2 IC50.
Assay type: biochemical
Method: Recombinant baculovirus for the FLAG-tagged hDGAT2 was generated in SF9 insect cells using Bac-to-Bac baculovirus expression system (Invitrogen) according to the manufacturer's protocol. For the expression of hDGAT2, SF9 cells (20 L) grown in Sf900II media were infected with hDGAT2 baculovirus at a multiplicity of infection of 1 in a Wave Bioreactor System 20/50P wave bag (GE Healthcare). After 40 hours of infection, the cells were then harvested by centrifugation at 5,000×g. The cell pellets were washed by resuspending in phosphate buffered saline (PBS) and collected by centrifugation at 5,000×g. The cell paste was flash frozen in liquid N2 and stored at −80° C. until needed. All operations below were at 4° C. unless otherwise noted. The cells were resuspended in lysis buffer (50 mM Tris-HCl, pH 8.0, 250 mM sucrose) including 1 mM ethylenediaminetetraacetic acid (EDTA) and the complete protease inhibitor cocktail (Roche Diagnostics) at a ratio of 3 ml buffer per 1 g cell paste. The cells were lysed by dounce homogenizer. The cell debris was removed by centrifugation at 1,000×g for 20 min, and the supernatant was centrifuged at 100,000×g for 1 hour. The resulting pellet was rinsed three times by filling ultracentrifuge tubes to the top with ice cold PBS before decanting. The washed pellet was resuspended with gentle stirring for 1 hour in lysis buffer containing 8 mM 3-[(3-cholamidopropyl)dimethylammonio]-1-propanesulfonate (CHAPS) at a ratio of 1 mL buffer per 1 g of original cell paste and centrifuged again at 100,000×g for 1 hour. The resulting supernatant (hDGAT2 membrane fraction) was aliquotted, flash frozen in liquid N2, and stored at −80° C. until use.
To 1 μL of compounds dissolved in 100% DMSO and spotted at the bottom of each well, 5 μL of 0.04% bovine serum albumin (BSA) (fatty acid free, Sigma Aldrich) was added and the mixture was incubated at room temperature for 20 minutes. To this mixture, 10 μL of hDGAT2 membrane fraction (0.01 mg/mL) diluted in 100 mM Hepes-NaOH, pH 7.4, 20 mM MgCl2 containing 200 nM methyl arachidonyl fluorophosphonate (Cayman Chemical; dried from ethyl acetate stock solution under argon gas and dissolved in DMSO as 5 mM stock) was added. […] The reaction mixtures were incubated at room temperature for 40 min and the reactions were stopped by addition of 5 μL of 1% H3PO4. After the addition of 45 μL MicroScint-E (Perkin-Elmer), plates were sealed with Top Seal-A covers (Perkin-Elmer) and phase partitioning of substrates and products was achieved using a HT-91100 microplate orbital shaker (Big Bear Automation, Santa Clara, Calif.). Plates were centrifuged at 2,000×g for 1 min in an Allegra 6R Centrifuge (Beckman Coulter) and then were sealed again with fresh covers before reading in a 1450 Microbeta Wallac Trilux Scintillation Counter (Perkin Elmer). DGAT2 activity was measured by quantifying the generated product [^14C]tridecanoylglycerol in the upper organic phase.
Inhibitors were tested at eleven different concentrations to generate IC50 values for each compound. […] Results are reported as geometric mean IC50 values.

Sequence of Human DGAT2 (hDGAT2) (Q96PD7 whole entry): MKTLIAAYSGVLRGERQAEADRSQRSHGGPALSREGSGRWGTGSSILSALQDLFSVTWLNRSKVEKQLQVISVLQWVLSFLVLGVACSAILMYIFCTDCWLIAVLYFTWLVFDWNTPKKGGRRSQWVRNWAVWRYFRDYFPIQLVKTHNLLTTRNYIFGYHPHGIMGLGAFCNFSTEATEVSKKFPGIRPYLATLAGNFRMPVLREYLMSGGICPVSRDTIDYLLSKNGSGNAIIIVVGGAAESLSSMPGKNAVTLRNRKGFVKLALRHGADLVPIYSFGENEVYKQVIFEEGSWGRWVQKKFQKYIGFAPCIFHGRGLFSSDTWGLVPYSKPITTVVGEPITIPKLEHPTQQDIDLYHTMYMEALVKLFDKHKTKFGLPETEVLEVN

First: O=C([C@@H]1CCCN(c2ccc3nc(-c4nc(C5CC5)cs4)[nH]c3n2)C1)N1CCCC1 [Example 84, (R)-(1-(2-(4-Cyclopropylthiazol-2-yl)-3H-imidazo[4,5-b]pyridin-5-yl)piperidin-3-yl)(pyrrolidin-1-yl)methanone]
Second: O=C([C@@H]1CCCN(c2ccc3nc(-c4ccnc(C5CC5)n4)[nH]c3n2)C1)N1CCC1 [Example 220, (R)-Azetidin-1-yl(1-(2-(2-cyclopropylpyrimidin-4-yl)-3H-imidazo[4,5-b]pyridin-5-yl)piperidin-3-yl)methanone]
The pIC50 of the first is 1.45 log units higher: 8.02 for the first, 6.57 for the second.

Compared with `CCOC(=O)CCc1cccc(-c2nc3ccc(N4CCC[C@@H](C(=O)N5CCCC5)C4)nc3[nH]2)c1` [Example 128, (R)-Ethyl 3-(3-(5-(3-(pyrrolidine-1-carbonyl)piperidin-1-yl)-3H-imidazo[4,5-b]pyridin-2-yl)phenyl)propanoate], `O=C([C@@H]1CCCN(c2ccc3nc(-c4ccccc4)[nH]c3n2)C1)N1CCCC1` [Example 116, (R)-(1-(2-Phenyl-3H-imidazo[4,5-b]pyridin-5-yl)piperidin-3-yl)(pyrrolidin-1-yl)methanone] is 0.97 log units lower in pIC50: 8.15 for the first, 7.18 for the second. The first is the more potent here.

Compared with `O=C([C@@H]1CCCN(c2nc3[nH]c(-c4ccnc(C5CC5)n4)nc3cc2F)C1)N1CCCC1` [Example 136, (R)-(1-(2-(2-Cyclopropylpyrimidin-4-yl)-6-fluoro-3H-imidazo[4,5-b]pyridin-5-yl)piperidin-3-yl)(pyrrolidin-1-yl)methanone], `O=C([C@@H]1CCCN(c2ccc3nc(-c4ccnc(C5CC5)n4)[nH]c3n2)C1)N1CC[C@H](O)C1` [Example 132, ((R)-1-(2-(2-Cyclopropylpyrimidin-4-yl)-3H-imidazo[4,5-b]pyridin-5-yl)piperidin-3-yl)((S)-3-hydroxypyrrolidin-1-yl)methanone] is 2.04 log units lower in pIC50: 8.20 for the first, 6.16 for the second.

`O=C([C@@H]1CCCN(c2ccc3nc(C4(c5ccccc5)CC4)[nH]c3n2)C1)N1CCCC1` [Example 51, (R)-(1-(2-(1-Phenylcyclopropyl)-3H-imidazo[4,5-b]pyridin-5-yl)piperidin-3-yl)(pyrrolidin-1-yl)methanone] and `Cc1cccc(C2(c3nc4ccc(N5CCC[C@@H](C(=O)N6CCCC6)C5)nc4[nH]3)CC2)c1` [Example 97, (R)-Pyrrolidin-1-yl(1-(2-(1-m-tolylcyclopropyl)-3H-imidazo[4,5-b]pyridin-5-yl)piperidin-3-yl)methanone] are within 0.2 log units of each other in pIC50: 7.16 for the first, 7.01 for the second.

First: NC(=O)c1cccc(-c2nc3ccc(N4CCC[C@@H](C(=O)N5CCCC5)C4)nc3[nH]2)n1 [Example 172, (R)-6-(5-(3-(Pyrrolidine-1-carbonyl)piperidin-1-yl)-3H-imidazo[4,5-b]pyridin-2-yl)picolinamide]
Second: O=C([C@@H]1CCCN(c2ccc3nc(-c4ccccc4F)[nH]c3n2)C1)N1CCCC1 [Example 21, (R)-(1-(2-(2-Fluorophenyl)-3H-imidazo[4,5-b]pyridin-5-yl)piperidin-3-yl)(pyrrolidin-1-yl)methanone]
The pIC50 of the first is 0.62 log units higher: 7.08 for the first, 6.46 for the second.

Going from `O=C([C@H]1CN(c2ccc3nc(-c4cccc(C5CC5)n4)[nH]c3n2)CCO1)N1CCCC1` [Example 142, (R)-(4-(2-(6-Cyclopropylpyridin-2-yl)-3H-imidazo[4,5-b]pyridin-5-yl)morpholin-2-yl)(pyrrolidin-1-yl)methanone] to `CN(C)C(=O)[C@@H]1CCCN(c2ccc3nc(-c4cccc(C5CC5)n4)[nH]c3n2)C1` [Example 150, (R)-1-(2-(6-Cyclopropylpyridin-2-yl)-3H-imidazo[4,5-b]pyridin-5-yl)-N,N-dimethylpiperidine-3-carboxamide], the pIC50 falls from 7.61 to 7.33 (0.28 log units).

`O=C([C@@H]1CCCN(c2ccc3nc(-c4ccc5nccn5c4)[nH]c3n2)C1)N1CCCC1` [Example 19, (R)-(1-(2-(Imidazo[1,2-a]pyridin-6-yl)-3H-imidazo[4,5-b]pyridin-5-yl)piperidin-3-yl)(pyrrolidin-1-yl)methanone] was tested, and the pIC50 was 6.68.
